Test results taken from ChEMBL document CHEMBL2331449, “Synthesis, biological evaluation and molecular modeling of aloe-emodin derivatives as new acetylcholinesterase inhibitors” (Bioorg Med Chem, 2013).
pIC50, pKi: −log10 of the molar value.

Assays:
Acetylcholinesterase [1] = target: T1, Acetylcholinesterase (Rattus norvegicus, UniProt P37136)
T1 sequence (P37136 whole entry): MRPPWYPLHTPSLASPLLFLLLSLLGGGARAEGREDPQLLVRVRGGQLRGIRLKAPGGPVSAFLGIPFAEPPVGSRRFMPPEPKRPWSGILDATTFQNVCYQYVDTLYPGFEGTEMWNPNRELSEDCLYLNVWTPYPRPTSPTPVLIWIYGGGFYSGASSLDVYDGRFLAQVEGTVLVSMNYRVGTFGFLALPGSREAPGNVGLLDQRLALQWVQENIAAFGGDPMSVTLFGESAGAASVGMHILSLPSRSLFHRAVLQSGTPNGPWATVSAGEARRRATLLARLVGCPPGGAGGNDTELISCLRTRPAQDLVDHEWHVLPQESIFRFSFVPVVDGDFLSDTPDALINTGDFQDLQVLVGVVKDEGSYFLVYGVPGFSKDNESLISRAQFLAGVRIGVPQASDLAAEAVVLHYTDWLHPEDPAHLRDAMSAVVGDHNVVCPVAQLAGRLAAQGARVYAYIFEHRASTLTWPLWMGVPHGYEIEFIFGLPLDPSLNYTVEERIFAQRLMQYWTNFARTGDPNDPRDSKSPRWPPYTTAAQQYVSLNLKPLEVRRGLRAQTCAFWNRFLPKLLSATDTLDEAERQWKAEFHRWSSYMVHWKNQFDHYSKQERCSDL
Description: Inhibition of AChE in rat cortex using acetylthiocholine iodide as substrate preincubated with enzyme for 10 mins prior to substrate addition by Ellman's colorimetric method

Acetylcholinesterase [2] = target: T1, Acetylcholinesterase; experiment: Inhibition of AChE in rat cortex using acetylthiocholine iodide as substrate by double Lineweaver-Burk plot analysis

| SMILES | pIC50 (Acetylcholinesterase [1]) | pKi (Acetylcholinesterase [2]) |
| --- | --- | --- |
| COc1cccc2c1C(=O)c1c(OC)cc(C[N+](C)(C)C)cc1C2=O | 6.27 | – |
| COc1cccc2c1C(=O)c1c(OC)cc(C[N+](C)(C)c3ccccc3)cc1C2=O | 4.87 | – |
| O=C1c2cccc(O)c2C(=O)c2c(O)cc(C[n+]3ccccc3)cc21 | 7.05 | 6.55 |
| C[N+](C)(C)Cc1cc(O)c2c(c1)C(=O)c1cccc(O)c1C2=O | 5.42 | – |
| C[N+](C)(Cc1cc(O)c2c(c1)C(=O)c1cccc(O)c1C2=O)c1ccccc1 | 4.60 | – |
